Source: US20250161338A1, “Compounds for Anti-aging Intervention” (AGENCY FOR SCIENCE, TECHNOLOGY AND RESEARCH, priority 2022, published 2025)
“Also recorded” adds a separate entry of the source.

Experiments:
human cells = assay: High-throughput chemical screening using the PI method in human cells; format: cell-based; details: Day 6; library tested at 1 μM; controls ranged from 4.22 to 4.53; lower = extended CLS
Protocol: The stock solution of rapamycin, hemin, 5-fluorouracil, atorvastatin, and methotrexate was prepared in DMSO, followed by serial dilution to form various concentrations used in the experiment. The final DMSO concentration was kept at 0.05% in all experiments. The stock solution of 2,5-anhydro-D-mannitol was prepared in D10 medium. The chemical library used in screening were tested at 1 μM concentrations. Controls used were the same as the solvent applied, DMSO or water.
The assay was performed by preparing the cells with PI (2 μg/mL or 5 μg/mL) in a D10 medium. 200 μL culture (8×10^4 cells) was seeded per well in a 96-well plate with different concentrations of the anti-aging drug (rapamycin, 2,5-AM, plicamycin, copanlisib dihydrochloride, nedaplatin, hemin, 5-fluorouracil, methotrexate, or atorvastatin) and no treatment control (DMSO). The culture plate was kept away from light throughout the experiment and incubated at 37° C. with 5% CO2. At different age time points, reading was taken with a Synergy MX microplate reader (BioTek, Winooski, Vermont, United States) at 535 nm excitation and 617 nm emission.
The PI method was used to identify additional novel anti-aging compounds that prolong CLS. A total of 162 compounds were screened, including some FDA-approved drugs and natural products. The log10 values of the PI intensity for the various control samples ranged from 4.22 to 4.53.

[1] = system: wild-type Saccharomyces cerevisiae CEN.PK113-7D yeast strain; assay: Yeast cell growth (OD600) in SD medium; format: cell-based; details: 0 to 8 mM; 24, 48 and 72 hours
Protocol: (§1) Yeast strain was recovered from frozen glycerol stock at 30° C. on YPD agar medium. Yeast was left to propagate in SD medium overnight at 30° C. with shaking at 220 revolutions per minute (rpm). Cells propagated overnight were diluted to a starting optical density at 600 nm (OD600) of approximately 0.2 in fresh SD medium to begin the chronological lifespan (CLS) experiments.
(§2) CLS experiments were performed in 96-well plates with 200 μL yeast culture. Cellular inoculums were transferred into 96-well plates containing serially double-diluted concentrations (0 to 10 nM) of rapamycin. Cellular inoculum was transferred into 96-well plates containing serially double-diluted concentrations (0 to 8 mM) of 2,5-anhydro-D-mannitol, D-fructose, D-mannitol, D-maltose, and D-sorbitol in SD medium. Cells were incubated at 30° C., and the growth was measured at different time points. The growth time point 72 hours was considered as Day 1 for the CLS assay. Cell survival was quantified at various age time points by three different approaches: (i) PI fluorescence-based method, (ii) outgrowth in YPD liquid medium, and (iii) spotting assay (FIG. 1).
Firstly, the effect of 2,5-AM on cell growth was determined. Yeast cells were incubated with varying concentrations of 2,5-AM in the SD medium. Cell growth was measured at different time points (24 hours, 48 hours, and 72 hours). […] Then, the survival of chronologically aged cells supplemented with different concentrations of 2,5-AM was measured using the PI fluorescence method. At each chronological age point, a 3 μL culture was transferred to a second 96-well plate containing 200 μL YPD medium. The 72-hour growth culture was considered Day 1 for the CLS analysis. The viability fraction was calculated, and a survival graph was plotted for different chronological age time points (FIG. 5). […] The survival of aged cells supplemented with 2,5-AM (4 mM and 8 mM) on Day 4 was approximately 80%. However, the survival of aged cells without 2,5-AM was approximately 50%. On Day 7, survival of 2,5-AM supplemented aged cells was approximately 75%. However, the survival of aged cells without 2,5-AM was reduced to less than 20%.
Firstly, the effect of fructose, mannitol, maltose, and sorbitol on cell growth was tested. Yeast cells were incubated with various concentrations of fructose, mannitol, maltose, and sorbitol similar to 2,5-AM in the SD medium. […] Next, the survival of chronologically aged cells on day 1, day 7, day 14, and day 21 was measured. […] Aged cells supplemented with 2,5-AM (8 mM) survived (approximately 65%) on Day 21. However, the survival of aged cells without 2,5-AM supplementation was less than 10%.

[2] = system: wild-type Saccharomyces cerevisiae CEN.PK113-7D yeast strain; assay: Chronological lifespan analysis in yeast (PI, outgrowth, spotting); format: cell-based
Protocol: as §1
as §2, with “Cellular inoculum was transferred into 96-well plates containing serially double-diluted concentrations (0 to 8 mM) of 2,5-anhydro-D-mannitol, D-fructose, D-mannitol, D-maltose, and D-sorbitol in SD medium.” left out
Yeast cells (40 μL) from different age time points were transferred into a second 96-well plate (different to the 96-well plate in which the CLS analysis as outlined above was performed). Cells were washed and incubated in 100 μL 1×phosphate buffered saline (PBS) with propidium iodide (PI) (5 μg/mL) for 15 minutes in the dark. Positive and negative control samples were included for quantitative analysis. Positive control (cells boiled at 100° C. for 15 minutes) was PI-stained and processed in the same 96-well plate. Samples without PI-stained cells served as the negative control. After incubation, cells were washed and resuspended in 100 μL PBS. The fluorescence reading of the samples (excitation and emission wavelengths at 535 nm and 617 nm, respectively) and OD600 were measured with a microplate reader (BioTek, Winooski, Vermont, United States). The fluorescence intensity of each sample was normalized with OD600. The background fluorescence signal of the unstained negative sample was subtracted from the normalized fluorescence intensity of each sample. The obtained fluorescence intensity of the positive control (boiled dead cells) was considered 0% cell survival. Cell death was validated by allowing the boiled dead cells to grow in medium. Cell survival at different age time points of samples were calculated by normalizing the fluorescence intensity with positive control sample (boiled cells).
Yeast stationary culture (3 μL) of different age time points were transferred to a second 96-well plate, containing 200 μL YPD medium, and incubated for 24 hours at 30° C. Outgrowth (OD600) of aged cells was measured by the microplate reader. Quantification of cell survival for each age point was determined as relative to Day 1 (considered 100% cell survival). This quantification was performed by using the formula,
Yeast stationary culture (3 μL) of different age time points were spotted onto a YPD agar plate and incubated for 48 hours at 30° C. The outgrowth of aged cells on the YPD agar plate was photographed using the Bio-Rad GelDoc Imaging System (Bio-Rad, Hercules, California, United States).

[3] = system: wild-type Saccharomyces cerevisiae CEN.PK113-7D yeast strain; details: very high concentrations (18% equivalent to 1M); by increasing osmolarity; cited from earlier work
[4] = system: prototrophic yeast strain (CEN.PK113-7D); assay: Propidium iodide fluorescence-based CLS method in yeast (incl. high-throughput screening); format: cell-based, Saccharomyces cerevisiae; details: concentration tested 100 μM; for PI intensity: solvent DMSO or water, chronological age point Day 7 (72 h growth = Day 1), lower = more survival;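 as to PI intensity: untreated reference is eight DMSO and water control wells per plate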
Summary of the method: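 CEN.PK113-7D aged in SD medium at 30 °C with compounds (rapamycin 0–10 nM; sugars 0–8 mM; screen at single concentrations). At each age point cells were stained with 5 μg/mL PI for 15 min; fluorescence was normalized to OD600, background-subtracted, and survival scaled against boiled-cell control.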

[5] = system: prototrophic yeast strain (CEN.PK113-7D); assay: Yeast outgrowth in YPD liquid medium (CLS of aged cells); format: cell-based, Saccharomyces cerevisiae; details: concentration tested 100 μM; OD600 nm after 24 h in YPD at 30° C.; age point day 14
Summary of the method: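 Cultures aged at 30 °C in SD medium with double-diluted rapamycin (0–10 nM) or sugars/polyols (0–8 mM). On day 14, 3 µL of culture was transferred into 200 µL YPD and outgrowth read as OD600. Survival expressed relative to day 1 outgrowth (100%).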

[6] = 0 to 8 mM in SD medium, up to day 21

## copanlisib dihydrochloride
Human cells
  log10 PI intensity: 3.59

## OC[C@@H](O)[C@@H](O)[C@H](O)[C@H](O)CO [mannitol, D-mannitol]
[1]
  cell growth: reached growth saturation after 24 hours
[2]; [6]
  effect on yeast CLS: did not extend the lifespan of the yeast

## plicamycin
Human cells
  log10 PI intensity: 3.91

## OC[C@H]1O[C@H](O[C@H]2[C@H](O)[C@@H](O)[C@H](O)O[C@@H]2CO)[C@H](O)[C@@H](O)[C@@H]1O [maltose, D-maltose]
[1]
  cell growth: reached growth saturation after 24 hours
[2]; [6]
  effect on yeast CLS: did not extend the lifespan of the yeast

## O=C(CO)[C@@H](O)[C@H](O)[C@H](O)CO [fructose, D-fructose]
[1]
  cell growth: reached growth saturation after 24 hours
[2]; [6]
  effect on yeast CLS: did not extend the lifespan of the yeast

## OC[C@@H](O)[C@@H](O)[C@H](O)[C@@H](O)CO [sorbitol, D-sorbitol]
[1]
  cell growth: reached growth saturation after 24 hours
[3]
  effect on yeast CLS (known): increase the CLS of yeast cells
[2]; [6]
  effect on yeast CLS: did not extend the lifespan of the yeast; also recorded: unable to increase the CLS
[2]; very high concentrations, between 0.5 and 1 M
  effect on yeast CLS: increased the CLS of yeast

## Cc1cc2c(C(C)C)c(O)c(O)c(C=O)c2c(O)c1-c1c(C)cc2c(C(C)C)c(O)c(O)c(C=O)c2c1O [Gossypol]
[4]
  PI intensity: 65,220.1
[5]
  Outgrowth: 0.1

## C[C@H]1CNCCCN1S(=O)(=O)c1cccc2cncc(F)c12 [Ripasudil, reference compound]
[4]; Yes/No call of the screen
  Yeast CLS increase: No
[4]
  PI intensity: 77,962.0
[5]
  Outgrowth: 0.1
